Results: US12414952B2 (Merck Sharp & Dohme LLC, priority 2018, dated 2025)

How the values were obtained:
[1] = biological target: human A2a adenosine receptor (Homo sapiens (Human), UniProt P29274); test: A2a binding affinity using radioligand binding, Method (A); details: Method (A): [3H]SCH58261 filtration binding
Source text: The A2a receptor affinity binding assay measured the amount of binding of a tritiated ligand with high affinity for the A2a adenosine receptor to membranes made from HEK293 or CHO cells recombinantly expressing the human A2a adenosine receptor, in the presence of varying concentrations of a compound of the invention. The data were generated using either filtration binding or a homogenous scintillation proximity assay (SPA).
Method (A): Measurement of A2a Binding Affinity Using Radioligand Binding
148 μL (5 μg/mL) membranes (Perkin Elmer, Cat. No. RBHA2aM400UA) and 2 μL compounds of the invention to be tested (test compound) were transferred to individual wells of a 96-well polypropylene assay plate and incubated for 15 to 30 min at room temperature. [^3H] SCH58261 ((7-(2-phenylethyl)-5-amino-2-(2-furyl)-pyrazolo-[4,3-e]-1,2,4-triazolo[1,5-c]pyrimidine)) was diluted in assay buffer (50 mM Tris pH 7.4, 10 mM MgCl2, 0.005% Tween20) to a concentration of 4 nM and 50 μL transferred to each well of the assay plate. […] The assay plate was incubated at room temperature for 60 min with agitation. […] Filtering was achieved by aspirating the contents of the assay plate for 5 sec, then washing and aspirating the contents three times with ice-cooled wash buffer (50 mM Tris-HCl pH 7.4, 150 mM NaCl) and allowing the vacuum manifold to dry the plate for […]. The filter plate was incubated for at least 1 h at 55° C. and allowed to dry. The bottom of the filter plate was sealed with backing tape. […] The plate was incubated for at least 20 min, and then the amount of radioactivity remaining in each well was determined using a TopCount® (Perkin Elmer) scintillation counter. After normalization to total and non-specific binding, the percent effect at each compound concentration was calculated. The plot of percent effect versus the log of compound concentration was analyzed electronically using a 4-parameter logistic fit based on the Levenberg-Marquardt algorithm to generate IC50 values.

[2] = biological target: human A2b adenosine receptor (Homo sapiens (Human), UniProt P29275); test: A2b binding affinity, radioligand filtration binding assay; details: tritiated proprietary A2b antagonist, HEK293 membranes
Procedure: Measurement of A2b Binding Affinity
The reported affinity of the compounds of the invention for the human A2b adenosine receptor was determined experimentally using a radioligand filtration binding assay. This assay measures the amount of binding of a tritiated proprietary A2b receptor antagonist, in the presence and absence of a compound of the invention, to membranes made from HEK293 cells recombinantly expressing the human A2b adenosine receptor (Perkin Elmer, Cat. No. ES-013-C).
The filter plate was incubated for at least 1 h at 55° C. and allowed to dry. The bottom of the filter plate was then sealed with backing tape. […] The plates were then incubated for at least 20 min, and then the amount of radioactivity remaining in each well was determined using a TopCount® (Perkin Elmer) scintillation counter. After normalization to total and non-specific binding, the percent effect at each compound concentration was calculated. The plot of percent effect versus the log of compound concentration was analyzed electronically using a 4-parameter logistic fit based on the Levenberg-Marquardt algorithm to generate IC50 values.

human A2b adenosine receptor, sequence (P29275 whole entry): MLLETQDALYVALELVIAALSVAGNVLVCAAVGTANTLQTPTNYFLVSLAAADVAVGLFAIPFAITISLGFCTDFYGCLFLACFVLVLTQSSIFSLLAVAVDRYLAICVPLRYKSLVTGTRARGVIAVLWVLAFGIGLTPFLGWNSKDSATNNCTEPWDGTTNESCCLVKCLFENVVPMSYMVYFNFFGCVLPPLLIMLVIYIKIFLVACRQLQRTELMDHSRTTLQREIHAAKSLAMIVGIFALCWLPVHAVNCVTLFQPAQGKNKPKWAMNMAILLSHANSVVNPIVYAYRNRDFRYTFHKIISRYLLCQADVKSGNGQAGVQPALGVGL
human A2a adenosine receptor, sequence (P29274 whole entry): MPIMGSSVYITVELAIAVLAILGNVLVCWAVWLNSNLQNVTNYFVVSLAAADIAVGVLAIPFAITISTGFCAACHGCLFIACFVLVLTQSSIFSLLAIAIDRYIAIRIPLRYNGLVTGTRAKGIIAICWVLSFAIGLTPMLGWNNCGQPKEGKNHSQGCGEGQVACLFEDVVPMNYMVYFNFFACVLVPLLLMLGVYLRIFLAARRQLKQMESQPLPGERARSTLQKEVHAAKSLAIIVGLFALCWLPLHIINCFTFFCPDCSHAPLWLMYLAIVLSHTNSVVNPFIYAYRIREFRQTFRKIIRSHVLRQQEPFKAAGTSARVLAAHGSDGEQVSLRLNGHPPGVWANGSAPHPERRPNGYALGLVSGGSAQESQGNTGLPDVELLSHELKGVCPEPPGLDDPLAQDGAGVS

| SMILES | IC50 [1] [µM] | IC50 [2] [µM] |
| --- | --- | --- |
| Cc1c(-c2cc(F)ccc2F)nc(N)c2nc(Cc3ncccc3F)nn12 [Example 4.8] | 0.0187 | 0.0093 |
| Cc1c(-c2ncco2)nc(N)c2nc(Cc3cccc4c3ncn4CC(C)(C)O)nn12 [Example 4.9] | 0.0002 | 0.0012 |
| Cc1c(-c2ncco2)nc(N)c2nc(Cc3cccc4c3ncn4CC(F)F)nn12 [Example 4.10] | 0.0007 | 0.0065 |
| Cc1c(-c2ncco2)nc(N)c2nc(Cc3ccc(C(C)(C)O)cn3)nn12 [Example 4.11] | 0.0482 | 0.0665 |
| Cc1c(-c2ncco2)nc(N)n2nc(Cc3ccc([C@H]4C[C@@](C)(O)C4)cc3)nc12 [Example 5.2, (1s,3s)-3-(4-((5-amino-8-methyl-7-(oxazol-2-yl)-[1,2,4]triazolo[1,5-c]pyrimidin-2-yl)methyl)phenyl)-1-methylcyclobutanol] | 0.0025 | 0.0016 |
| Cc1c(-c2ncco2)nc(N)n2nc(Cc3ccc([C@H]4C[C@](C)(O)C4)cc3)nc12 [Example 5.3, (1r,3r)-3-(4-((5-amino-8-methyl-7-(oxazol-2-yl)-[1,2,4]triazolo[1,5-c]pyrimidin-2-yl)methyl)phenyl)-1-methylcyclobutanol] | 0.0121 | 0.0035 |
| Cc1c(-c2ncco2)nc(N)n2nc(Cc3ccc(C4(O)CCC4)cc3)nc12 [Example 6.3, 1-(4-((5-amino-8-methyl-7-(oxazol-2-yl)-[1,2,4]triazolo[1,5-c]pyrimidin-2-yl)methyl)phenyl)cyclobutanol] | 0.0171 | 0.0107 |
| COC1(c2ccc(Cc3nc4c(C)c(-c5ncco5)nc(N)n4n3)cc2)CCC1 [Example 6.4, 2-(4-(1-methoxycyclobutyl)benzyl)-8-methyl-7-(oxazol-2-yl)-[1,2,4]triazolo[1,5-c]pyrimidin-5-amine] | 0.0049 | 0.0057 |
| Cc1c(-c2ncco2)nc(N)n2nc(Cc3ccc(C(C)(C)O)cc3)nc12 [Example 6.5, 2-(4-((5-amino-8-methyl-7-(oxazol-2-yl)-[1,2,4]triazolo[1,5-c]pyrimidin-2-yl)methyl)phenyl)propan-2-ol] | 0.0387 | 0.005 |
| Cc1c(-c2ncco2)nc(N)n2nc(Cc3cccc(C(C)(C)O)c3)nc12 [Example 6.6, 2-(3-((5-amino-8-methyl-7-(oxazol-2-yl)-[1,2,4]triazolo[1,5-c]pyrimidin-2-yl)methyl)phenyl)propan-2-ol] | 0.0019 | 0.243 |
| Cc1c(-c2ncco2)nc(N)c2nc(Cc3ccc(C(C)(C)O)cc3)nn12 [Example 6.7, 2-(4-((8-amino-5-methyl-6-(oxazol-2-yl)-[1,2,4]triazolo[1,5-a]pyrazin-2-yl)methyl)phenyl)propan-2-ol] | 0.0157 | 0.0301 |
| Cc1c(-c2ncco2)nc(N)c2nc(Cc3cccc(C(C)(C)O)c3)nn12 [Example 6.8, 2-(3-((8-amino-5-methyl-6-(oxazol-2-yl)-[1,2,4]triazolo[1,5-a]pyrazin-2-yl)methyl)phenyl)propan-2-ol] | 0.0012 | 0.331 |
| Cc1c(-c2ncco2)nc(N)n2nc(Cc3ccn(C)n3)nc12 [Example 7.6, 8-methyl-2-((1-methyl-1H-pyrazol-3-yl)methyl)-7-(oxazol-2-yl)-[1,2,4]triazolo[1,5-c]pyrimidin-5-amine] | 0.0005 | 0.0026 |
| Cc1cccnc1Cc1nc2c(N)nc(-c3ncco3)c(C)n2n1 [Example 8.3] | 0.0013 | 0.0299 |
| Cc1c(-c2ncco2)nc(N)c2nc(Cc3ncccc3F)nn12 [Example 8.4] | 0.0013 | 0.0186 |
| Cc1c(-c2ncco2)nc(N)n2nc(CNCc3ccc(C(F)(F)F)cc3)nc12 [Example 10.2, 8-methyl-7-(oxazol-2-yl)-2-(((4-(trifluoromethyl)benzyl)amino)methyl)-[1,2,4]triazolo[1,5-c]pyrimidin-5-amine] | 0.0045 | 0.0484 |
| Cc1c(-c2ncco2)nc(N)n2nc(CN3CCc4cccnc43)nc12 [Example 10.3, 2-((2,3-dihydro-1H-pyrrolo[2,3-b]pyridin-1-yl)methyl)-8-methyl-7-(oxazol-2-yl)-[1,2,4]triazolo[1,5-c]pyrimidin-5-amine] | 0.0004 | 0.0145 |
| Cc1c(-c2ncco2)nc(N)n2nc(CNCc3ccc(C(F)(F)F)cn3)nc12 [Example 10.4, 8-methyl-7-(oxazol-2-yl)-2-((((5-(trifluoromethyl)pyridin-2-yl)methyl)amino)methyl)-[1,2,4]triazolo[1,5-c]pyrimidin-5-amine] | 0.156 | 0.33 |
| Cc1c(-c2cccc(F)c2)nc(N)n2nc(CNCc3ccc(C(F)(F)F)cc3)nc12 [Example 10.5, 7-(3-fluorophenyl)-8-methyl-2-(((4-(trifluoromethyl)benzyl)amino)methyl)-[1,2,4]triazolo[1,5-c]pyrimidin-5-amine] | 0.163 | 0.157 |
| Cc1c(-c2ncco2)nc(N)n2nc(CNCc3ccc(C(C)(C)O)cc3)nc12 [Example 11.2, 2-(4-((((5-amino-8-methyl-7-(oxazol-2-yl)-[1,2,4]triazolo[1,5-c]pyrimidin-2-yl)methyl)amino)methyl)phenyl)propan-2-ol] | 0.0011 | 0.0626 |
| Cc1c(-c2ncco2)nc(N)n2nc(CNCc3ccc(C(C)(C)O)cn3)nc12 [Example 11.3, 2-(6-((((5-amino-8-methyl-7-(oxazol-2-yl)-[1,2,4]triazolo[1,5-c]pyrimidin-2-yl)methyl)amino)methyl)pyridin-3-yl)propan-2-ol] | 0.0155 | 0.0406 |
| Cc1c(-c2ncco2)nc(N)n2nc(CNCc3ccc(C(C)(C)O)nc3)nc12 [Example 11.4, 2-(5-((((5-amino-8-methyl-7-(oxazol-2-yl)-[1,2,4]triazolo[1,5-c]pyrimidin-2-yl)methyl)amino)methyl)pyridin-2-yl)propan-2-ol] | 0.0054 | 0.744 |
| Cc1c(-c2ncco2)nc(N)n2nc(CNCc3cnn(CC(C)(C)O)c3)nc12 [Example 11.5, 1-(4-((((5-amino-8-methyl-7-(oxazol-2-yl)-[1,2,4]triazolo[1,5-c]pyrimidin-2-yl)methyl)amino)methyl)-1H-pyrazol-1-yl)-2-methylpropan-2-ol] | 0.0152 | 1.32 |
| Cc1c(-c2ncco2)nc(N)n2nc(CN(Cc3ccc(C(F)(F)F)cc3)CC(F)F)nc12 [Example 12.3] | 0.0007 | 1.99 |
| Cc1c(-c2ncco2)nc(N)n2nc(CN(Cc3ccc(C(C)(C)O)cc3)CC(F)F)nc12 [Example 13.1, 2-(4-((((5-amino-8-methyl-7-(oxazol-2-yl)-[1,2,4]triazolo[1,5-c]pyrimidin-2-yl)methyl)(2,2-difluoroethyl)amino)methyl)phenyl)propan-2-ol] | 0.0004 | 0.489 |
| Cc1c(-c2ncco2)nc(N)n2nc(CCS(=O)(=O)C3CC3)nc12 [Example 15.3, 2-(2-(cyclopropylsulfonyl)ethyl)-8-methyl-7-(oxazol-2-yl)-[1,2,4]triazolo[1,5-c]pyrimidin-5-amine] | 0.0073 | 0.151 |
| Cc1c(-c2cccc(F)c2)nc(N)n2nc(CCS(=O)(=O)C3CC3)nc12 [Example 16.2, 2-(2-(cyclopropylsulfonyl)ethyl)-7-(3-fluorophenyl)-8-methyl-[1,2,4]triazolo[1,5-c]pyrimidin-5-amine] | 0.0193 | 0.453 |
| Cc1c(-c2ncco2)nc(N)n2nc(CCN3CCn4c(cnc4C4CC(F)(F)C4)C3)nc12 [Example 17.2, 2-(2-(3-(3,3-difluorocyclobutyl)-5,6-dihydroimidazo[1,5-a]pyrazin-7(8H)-yl)ethyl)-8-methyl-7-(oxazol-2-yl)-[1,2,4]triazolo[1,5-c]pyrimidin-5-amine] | 0.0004 | 0.0203 |
| Cc1c(-c2ncco2)nc(N)n2nc(CCN3CCn4c(cnc4C4CCCC4)C3)nc12 [Example 17.3, 2-(2-(3-cyclopentyl-5,6-dihydroimidazo[1,5-a]pyrazin-7(8H)-yl)ethyl)-8-methyl-7-(oxazol-2-yl)-[1,2,4]triazolo[1,5-c]pyrimidin-5-amine] | 0.0042 | 0.0177 |
